The supplement of paper PMC13380429

Legend:
Conditions in all cases: 72 h
[1] = tested on: Caco-2; assay: drug sensitivity score (DSS) for viability; higher = more toxic; extreme values may be limits of the assay
[2] = tested on: Vero E6; assay: as above
[3] = tested on: Calu-3; assay: as above
[4] = tested on: HepG2; assay: as above
[5] = tested on: U2OS; assay: as above
[6] = tested on: Caco-2; assay: relative viability EC50 (midpoint between 100% and the lowest measured viability); higher = less toxic
[7] = tested on: Vero E6; assay: as above
[8] = tested on: Calu-3; assay: as above
[9] = tested on: HepG2; assay: as above
[10] = tested on: U2OS; assay: as above
[11] = tested on: Caco-2; assay: cell viability relative to DMSO; higher = less toxic
[12] = tested on: Vero E6; assay: as above
[13] = tested on: Calu-3; assay: as above
[14] = tested on: HepG2; assay: as above
[15] = tested on: U2OS; assay: as above

Compound | drug sensitivity score [1] | drug sensitivity score [2] | drug sensitivity score [3] | drug sensitivity score [4] | drug sensitivity score [5] | relative viability EC50 [6] | relative viability EC50 [7] | relative viability EC50 [8] | relative viability EC50 [9] | relative viability EC50 [10] | cell viability ([11]; 1 nM) | cell viability ([11]; 10 nM) | cell viability ([11]; 100 nM) | cell viability ([11]; 1000 nM) | cell viability ([11]; 10000 nM) | cell viability ([12]; 1 nM) | cell viability ([12]; 10 nM) | cell viability ([12]; 100 nM) | cell viability ([12]; 1000 nM) | cell viability ([12]; 10000 nM) | cell viability ([13]; 1 nM) | cell viability ([13]; 10 nM) | cell viability ([13]; 100 nM) | cell viability ([13]; 1000 nM) | cell viability ([13]; 10000 nM) | cell viability ([14]; 1 nM) | cell viability ([14]; 10 nM) | cell viability ([14]; 100 nM) | cell viability ([14]; 1000 nM) | cell viability ([14]; 10000 nM) | cell viability ([15]; 1 nM) | cell viability ([15]; 10 nM) | cell viability ([15]; 100 nM) | cell viability ([15]; 1000 nM) | cell viability ([15]; 10000 nM)
CCNC(=O)NS(=O)(=O)c1sc(CC(C)C)cc1-c1ccc(Cn2c(-c3ccccc3)nc(OC)c2C=O)cc1 [AVE-0991] | 0 | 0 | 0 | 0 | 0 | > 10 µM | > 10 µM | > 10 µM | > 10 µM | > 10 µM | 108% | 97.5% | 99.1% | 90.1% | 97.7% | 99.9% | 98.3% | 97.7% | 93.3% | 96% | 107% | 104% | 110% | 93.8% | 97.9% | 102% | 99.6% | 101% | 108% | 102% | 104% | 99.7% | 103% | 100% | 102%
C/C(=C\C(=O)Nc1ccccc1C(=O)O)c1ccc2ccccc2c1 [BIBR-1532] | 0 | 0 | 0 | 0 | 0 | > 10 µM | > 10 µM | > 10 µM | > 10 µM | > 10 µM | 94.1% | 100% | 103% | 98% | 95.8% | 105% | 99.9% | 97.5% | 103% | 105% | 101% | 102% | 98.2% | 108% | 98% | 97.6% | 98% | 94.9% | 110% | 118% | 93.8% | 96.9% | 95.5% | 93.3% | 103%
c1ccc2cc(C3=NCCN3)ncc2c1 [BU226] | 0 | 0 | 0 | 0 | 0 | > 10 µM | > 10 µM | > 10 µM | > 10 µM | > 10 µM | 103% | 108% | 94.3% | 97.7% | 101% | 96.6% | 97.1% | 96.5% | 94.6% | 98.7% | 112% | 97.5% | 97% | 97.4% | 91.8% | 102% | 95.7% | 86.1% | 103% | 104% | 105% | 108% | 99.7% | 106% | 100%
CC(ONC(=O)c1cc(C(F)(F)F)cc(C(F)(F)F)c1)C(=O)Nc1ccc(Cl)cc1 (stereo not given) [CCG-1423] | 0 | 0 | 0 | 0 | 0 | > 10 µM | > 10 µM | > 10 µM | > 10 µM | > 10 µM | 99.9% | 97.9% | 91.4% | 97.4% | 88.6% | 101% | 99.4% | 99% | 105% | 99.2% | 96.4% | 89.5% | 85% | 95.1% | 98.7% | 108% | 99.4% | 94.9% | 96.8% | 89.2% | 100% | 98.6% | 105% | 99.6% | 101%
c1ccc(Oc2cccnc2)cc1 [CI-844] | 0 | 0 | 0 | 0 | 0 | > 10 µM | > 10 µM | > 10 µM | > 10 µM | > 10 µM | 96% | 97.6% | 90.4% | 93.1% | 93.2% | 101% | 103% | 100% | 99.8% | 98.7% | 104% | 101% | 89.9% | 94.1% | 106% | 102% | 103% | 94.3% | 97.4% | 106% | 100% | 103% | 94.9% | 97.2% | 96.1%
CC[C@H](CO)Nc1nc(NCc2ccc(-c3ccccn3)cc2)c2ncn(C(C)C)c2n1 [CR8-(R)] | 14.3 | 19.9 | 14.6 | 27.5 | 17.9 | 0.172 µM | 0.201 µM | 0.184 µM | 0.0531 µM | 0.315 µM | 101% | 97.1% | 86.5% | 34.5% | 34.1% | 90.2% | 99.3% | 85.8% | 2.9% | 9.3% | 104% | 80% | 87% | 31.3% | 39.9% | 88.7% | 102% | 17.2% | 0.7% | 8.8% | 100% | 93.3% | 99.8% | 0.2% | 4.8%
CNc1ccc([N+](=O)[O-])cc1-n1cnc(-c2ccc(C(F)(F)F)cc2)c1 [CU-T12-9] | 0 | 0 | 0 | 0 | 0 | > 10 µM | > 10 µM | > 10 µM | > 10 µM | > 10 µM | 95.4% | 105% | 96.8% | 101% | 101% | 103% | 96.4% | 100% | 101% | 102% | 104% | 90.9% | 93.8% | 94.9% | 94.9% | 108% | 104% | 93.8% | 95.4% | 91.3% | 103% | 103% | 96.2% | 98.2% | 100%
CC(=O)N[C@@H](CSSC[C@H](NC(C)=O)C(=O)O)C(=O)O [D-7193] | 0 | 0 | 0 | 0 | 0 | > 10 µM | > 10 µM | > 10 µM | > 10 µM | > 10 µM | 100% | 96.1% | 104% | 92% | 100% | 107% | 106% | 100% | 103% | 99.2% | 93.5% | 83.4% | 103% | 95.6% | 110% | 108% | 88.5% | 108% | 98.9% | 98% | 95.1% | 96.2% | 98.6% | 98.2% | 101%
CC(C)N(C[C@H]1O[C@@H](n2cnc3c(N)ncnc32)[C@H](O)[C@@H]1O)[C@H]1C[C@@H](CCc2nc3cc(C(C)(C)C)ccc3[nH]2)C1 [EPZ-5676] | 0 | 0 | 0 | 0 | 0 | > 10 µM | > 10 µM | > 10 µM | > 10 µM | > 10 µM | 90.7% | 99.2% | 100% | 97.1% | 101% | 106% | 106% | 98.9% | 102% | 106% | 101% | 102% | 95.4% | 104% | 104% | 106% | 94.9% | 89.7% | 105% | 108% | 105% | 97.5% | 101% | 102% | 111%
Cc1cccc(-c2[nH]c(CNc3ccccc3F)nc2-c2ccc3ncnn3c2)n1 [EW-7197] | 0 | 0 | 0 | 0 | 0.1 | > 10 µM | > 10 µM | > 10 µM | > 10 µM | > 10 µM | 95.7% | 96.4% | 94.1% | 109% | 99.4% | 102% | 105% | 102% | 95.4% | 98.7% | 97.3% | 88.4% | 96.9% | 114% | 105% | 95.1% | 104% | 106% | 103% | 93.3% | 99.1% | 99.4% | 94.4% | 95.5% | 85.5%
O=C(NCCN1CCC(n2c(=O)[nH]c3ccccc32)CC1)c1cc2cc(F)ccc2[nH]1 [FIPI] | 0 | 0 | 0 | 0 | 0 | > 10 µM | > 10 µM | > 10 µM | > 10 µM | > 10 µM | 95.7% | 101% | 100% | 101% | 106% | 95% | 95.9% | 99% | 96.6% | 103% | 92.2% | 101% | 99.8% | 98% | 96.8% | 90.7% | 110% | 98.2% | 93.7% | 91.1% | 97% | 94% | 100% | 97.4% | 94.8%
